Columns and labels:
[1] = molecular target: Near full length human DGKα(S9-S727) (Homo sapiens (Human), UniProt P23743); assay: DGKα (Near Full Length) ADP Glo assay; format: biochemical; details: extruded liposomes 5% or 10% DAG, 150 μM ATP, 5 nM enzyme; read-out: Near Full Length DGKalpha ADPGLO IC50
Description: The reactions were carried out at 150 μM ATP.
Luminescence was recorded using an EnVision microplate reader.

[2] = molecular target: DGKα-YFP in Jurkat cells (Homo sapiens (Human), UniProt P23743); assay: In vitro DGKα translocation assay; format: cell-based; details: 1 hour at 37° C., top concentration 10 μM, read-out: DGKalpha Translocation EC50
Sequence of DGKα-YFP in Jurkat cells (P23743 whole entry, canonical isoform): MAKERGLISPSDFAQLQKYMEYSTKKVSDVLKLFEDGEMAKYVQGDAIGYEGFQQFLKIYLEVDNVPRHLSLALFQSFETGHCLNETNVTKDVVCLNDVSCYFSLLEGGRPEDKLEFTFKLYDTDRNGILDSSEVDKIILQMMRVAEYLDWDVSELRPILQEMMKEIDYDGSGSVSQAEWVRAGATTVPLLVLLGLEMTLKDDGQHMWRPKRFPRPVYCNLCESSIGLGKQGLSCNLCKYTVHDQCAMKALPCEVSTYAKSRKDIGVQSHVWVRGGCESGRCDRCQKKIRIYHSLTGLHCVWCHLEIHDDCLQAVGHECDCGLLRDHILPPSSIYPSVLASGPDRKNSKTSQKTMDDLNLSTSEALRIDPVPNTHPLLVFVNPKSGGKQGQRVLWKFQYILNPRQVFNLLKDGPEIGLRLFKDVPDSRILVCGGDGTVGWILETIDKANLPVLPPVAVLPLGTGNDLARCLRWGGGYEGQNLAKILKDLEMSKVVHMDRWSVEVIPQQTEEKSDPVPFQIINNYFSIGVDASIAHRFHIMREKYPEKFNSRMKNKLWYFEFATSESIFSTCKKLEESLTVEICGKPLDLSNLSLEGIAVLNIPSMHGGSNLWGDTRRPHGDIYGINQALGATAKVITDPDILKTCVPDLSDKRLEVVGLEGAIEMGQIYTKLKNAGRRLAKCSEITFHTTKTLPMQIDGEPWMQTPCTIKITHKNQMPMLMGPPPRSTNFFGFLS
Description: Jurkat cells were transduced with lentiviral constructs overexpressing DGKα-YFP (N-terminal tagged), selected by puromycin, and were FACs sorted to establish stable lines expressing each isoform (Jurkat-DGKα-YFP=BXA-212700-01-001, Jurkat-DGKz-YFP=BXA-212701-01-001). Cell lines were maintained in growth media (RPMI supplemented with 10% FBS and pen/strep). All translocation assays were run in assay media (RPMI supplemented with 10% FBS and no antibiotics).
For translocation assays cells were plated onto Perkin Elmer CellCarrier-384 Ultra Microplates (Perkin Elmer cat #6057500) at a density of 30,000 cells/well, in a volume of 40 μL of assay media. Compounds were then transferred to the cells by an Echo Acoustic Liquid Handler (Echo 655). […] Treated cells were then incubated at 37° C. for 1 hour. Cells were then fixed with 4% formaldehyde (Thermo cat #28906) for 15 minutes, centrifuged briefly to increase cell retention (250 rpm for 5 minutes), and then washed 3× with 50 μL PBS. Cells were then stained with Hoechst, and washed 2× with 50 ul PBS. Next, 50 μL PBS was added to each well, plates were sealed, and plates were imaged on an Opera Phenix High Content screening system. Imaging was done with the 40× water objective. The YFP channel was set at 100% power for […], 10 regions/well were imaged and analyzed. Data analysis was done with Columbus Image Analysis software (Perk-in Elmer).

[3] = molecular target: Full length human DGKα (Homo sapiens (Human), UniProt P23743);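 note: ADP-Glo luminescence assay of ADP formed by 5 nM full-length DGKα on extruded PS/DAG/PC liposomes with 150 µM ATP, 1 h reaction, 11-point inhibitor titration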
Sequence of Full length human DGKα (P23743 other isoform, or with tags, fused parts or gaps): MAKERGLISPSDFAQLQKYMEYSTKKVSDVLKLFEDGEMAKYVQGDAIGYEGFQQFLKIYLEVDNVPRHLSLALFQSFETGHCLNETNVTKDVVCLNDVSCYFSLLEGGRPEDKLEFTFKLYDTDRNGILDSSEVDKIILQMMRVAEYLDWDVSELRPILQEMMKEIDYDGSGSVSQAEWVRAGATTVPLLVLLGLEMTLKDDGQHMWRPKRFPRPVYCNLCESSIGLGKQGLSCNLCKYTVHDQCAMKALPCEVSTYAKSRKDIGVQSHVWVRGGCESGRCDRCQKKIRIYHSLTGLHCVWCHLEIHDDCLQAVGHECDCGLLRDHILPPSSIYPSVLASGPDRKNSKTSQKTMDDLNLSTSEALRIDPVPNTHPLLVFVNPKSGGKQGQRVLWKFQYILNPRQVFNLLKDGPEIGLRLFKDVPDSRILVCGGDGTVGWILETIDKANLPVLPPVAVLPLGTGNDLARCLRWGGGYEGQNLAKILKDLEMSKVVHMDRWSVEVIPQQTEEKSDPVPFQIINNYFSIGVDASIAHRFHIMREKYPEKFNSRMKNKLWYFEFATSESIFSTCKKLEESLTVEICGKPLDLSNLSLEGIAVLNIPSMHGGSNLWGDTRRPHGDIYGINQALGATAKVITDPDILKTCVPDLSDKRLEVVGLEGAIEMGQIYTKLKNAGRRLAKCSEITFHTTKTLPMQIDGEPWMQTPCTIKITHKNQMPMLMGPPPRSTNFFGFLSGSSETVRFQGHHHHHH
Description: The DGKα (Full Length and Near Full Length) ADP Glo assays were performed using an extruded liposome prep at either 5% DAG or 10% DAG. The Enzymatic reactions were carried out in 50 mM MOPS pH 7.5, 100 mM NaCl, 10 mM MgCl2, 1 μM CaCl2, and 1 mM DTT (assay buffer). The lipid substrate concentrations were 1.9 mM PS, either 0.25 mM DAG (5% liposome prep) or 0.5 mM DAG (10% liposome prep), and 2.7 mM PC for the extruded liposome reactions. The reactions were carried out at 150 μM ATP. The enzyme concentrations for the DGKα(Near Full Length) and DGKα(FL) were 5 nM.
The compound inhibition studies were carried out as follows: 25 nL droplets of each test compound (11 point, 3-fold dilution series for each compound) solubilized in DMSO were transferred to wells of a white 1536 well plate (Corning 3725). A 5 mL enzyme/substrate (substrate being the 5× or 10× liposome preparation) solution at 2× final reaction concentrations was prepared by combining 5 ml of the extruded liposome preparation with 10 nM (2× final) DGKα(Near Full Length) or DGKα(Full Length) prepared as described below) and incubated at room temperature for 10 minutes. Next, 1 μL of the 2× enzyme/substrate solution was added to wells containing the test compound and reactions were initiated with the addition of 1 μL 300 uM ATP. Substrate only was added to DMSO only wells for background measurements. The reactions were allowed to proceed for 1 hr, after which 2 μL Glo Reagent (Promega V9101) was added and incubated for 40 minutes. Next, 4 μL Kinase Detection Reagent was added and incubated for 30 minutes. Luminescence was recorded using an EnVision microplate reader. […] The compounds were evaluated at 11 concentrations to determine IC50.

Sequence of Near full length human DGKα(S9-S727) (P23743 9-727): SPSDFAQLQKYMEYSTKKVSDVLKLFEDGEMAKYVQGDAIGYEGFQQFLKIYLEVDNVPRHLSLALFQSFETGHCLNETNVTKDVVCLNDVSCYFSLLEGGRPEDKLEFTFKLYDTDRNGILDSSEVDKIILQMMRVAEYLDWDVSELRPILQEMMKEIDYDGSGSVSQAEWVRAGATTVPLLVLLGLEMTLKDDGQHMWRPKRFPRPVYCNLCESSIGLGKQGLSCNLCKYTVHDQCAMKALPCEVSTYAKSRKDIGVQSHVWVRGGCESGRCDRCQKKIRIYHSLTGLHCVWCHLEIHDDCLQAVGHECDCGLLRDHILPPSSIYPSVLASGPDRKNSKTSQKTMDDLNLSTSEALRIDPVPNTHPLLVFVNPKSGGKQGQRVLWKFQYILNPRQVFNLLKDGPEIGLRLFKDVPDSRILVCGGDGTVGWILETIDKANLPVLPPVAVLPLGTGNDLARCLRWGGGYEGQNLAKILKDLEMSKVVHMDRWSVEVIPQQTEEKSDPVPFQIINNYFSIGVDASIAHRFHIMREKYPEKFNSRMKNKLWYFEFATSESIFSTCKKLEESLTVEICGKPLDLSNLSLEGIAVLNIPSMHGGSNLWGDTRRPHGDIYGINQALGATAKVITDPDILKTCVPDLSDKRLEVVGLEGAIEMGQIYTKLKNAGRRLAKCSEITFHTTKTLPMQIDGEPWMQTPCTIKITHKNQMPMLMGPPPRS

Compound	IC50 [1] [nM]	EC50 [2] [nM]	IC50 [3] [nM]
N#Cc1nc(-n2nnnc2CN(CC2CC2)C2CCCCC2)ccc1Cl [Example 15, 3-chloro-6-(5-((cyclohexyl (cyclopropylmethyl)amino)methyl)-1H-tetrazol-1-yl) picolinonitrile]	4300	2100	3100
CN(Cc1nnnn1-c1ccc(F)c(C#N)c1)C1CCCCC1 [Example 21, 5-(5-((cyclohexyl (methyl)amino)methyl)-1H-tetrazol-1-yl)-2-fluorobenzonitrile]	3100	1200	3700
CN(Cc1nnnn1-c1ccc(C(F)(F)F)c(C#N)c1)C1CCCCC1 [Example 4, 5-(5-((cyclohexyl(methyl)amino)methyl)-1H-tetrazol-1-yl)-2-(trifluoromethyl)benzonitrile]	280	820	27
CN(Cc1nnnn1-c1cccc(F)c1)C1CCCCC1 [Example 19, N-((1-(3-fluorophenyl)-1H-tetrazol-5-yl)methyl)-N-methylcyclohexanamine]	5800	> 5000	5200
CCN(Cc1nnnn1-c1ccc(Cl)c(C#N)n1)C1CCCCC1 [Example 16, 3-chloro-6-(5-((cyclohexyl(ethyl)amino)methyl)-1H-tetrazol-1-yl)picolinonitrile]	2600	> 10000	2700
CC(C)N(C)Cc1nnnn1-c1ccc(Cl)c(C#N)c1 [Example 11, 2-chloro-5-(5-((isopropyl(methyl)amino)methyl)-1H-tetrazol-1-yl)benzonitrile]	8600	> 10000	8800
CCCN(Cc1nnnn1-c1ccc(Cl)c(C#N)c1)C1CCCCC1 [Example 8, 2-chloro-5-(5-((cyclohexyl(propyl)amino)methyl)-1H-tetrazol-1-yl)benzonitrile]	2100	350	1500

The remaining lines, values ahead:

IC50 [1] [nM]	EC50 [2] [nM]	IC50 [3] [nM]	Compound
100	190	110	C=CCN(Cc1nnnn1-c1ccc(Cl)c(C#N)c1)C1CCCCC1 [Example 6, 5-(5-((allyl(cyclohexyl)amino)methyl)-1H-tetrazol-1-yl)-2-chlorobenzonitrile]
80	120	90	CCN(Cc1nnnn1-c1ccc(Cl)c(C#N)c1)C1CCCCC1 [Example 13, 2-chloro-5-(5-((cyclohexyl(ethyl)amino)methyl)-1H-tetrazol-1-yl)benzonitrile]
1400	1200	1100	CCCCN(Cc1nnnn1-c1ccc(Cl)c(C#N)c1)C1CCCCC1 [Example 5, 5-(5-((butyl(cyclohexyl)amino)methyl)-1H-tetrazol-1-yl)-2-chlorobenzonitrile]
410	350	140	Cc1ccc(-n2nnnc2CN(C)C2CCCCC2)cc1C#N [Example 25, 5-(5-((cyclohexyl(methyl)amino)methyl)-1H-tetrazol-1-yl)-2-methylbenzonitrile]
